According to patent US20140155445A1, “Compounds and Methods for Treating Cancer and Diseases of the Central Nervous System” (Osta Biotechnologies Inc., priority 2007, published 2014):
Entries after “also recorded” stand apart in the source; their conditions may differ. Read-outs that look alike come from different tables or passages of the source.

Experiments:
[1] = system: human pancreatic tumor cells; assay: Cell proliferation, [3H]thymidine incorporation, human pancreatic tumor cells; format: cell-based; conditions: 6.5 μM, 18 h
[2] = system: SKMEL-V+ tumors (blood vessels, CD31 positive cells); assay: CD31 / H&E staining, microvessel density of SKMEL-V+ tumors; format: in vivo, mouse; conditions: SKMEL-V+ tumors from treated mice; hydrochloride
Protocol: SKMEL-V (human melanoma cells). SKMEL-V cells were derived from SKMEL-24 cells (ATCC) by overexpression of mouse VEGF. […] Tumors were either snap frozen in liquid nitrogen or fixed in 10% buffered formalin and embedded in paraffin. […] BD PharMingen, San Diego, Calif.). […] Sections were rehydrated in PBS and then blocked with 5% normal goat serum for 1 h. The sections were then incubated overnight at 4° C. with CD31 antibody diluted 1:25 in 3% BSA-PBS. […] Paraffin-embedded material was used for Harris' hematoxylin. Microvessel density was quantified using a method described by Weidner et al ([…], and Folkman […]. Med, 1991; 324:1-8). Briefly, randomly vascularized areas were selected (hot spots) under 40× field and 100× fields. Then a 400× field was used to count microvessels in each of these areas. Single endothelial cells or clusters of endothelial cells with or without lumen were considered to be individual vessels. […] All slides were examined blindly with no prior knowledge of the treatment status.

[3] = system: SKMEL-V+ cells; assay: Cell proliferation / survival, MTT assay, SKMEL-V+ cells; format: cell-based, human; conditions: 6.25 μM to 100 μM, 96 hours
Protocol: Exponentially growing SKMEL-V+ cells (1×10^3) were seeded in 96-well plates in complete medium. […] Cell survival was evaluated 96 hours later using the MTT metabolic assay (Benlimame N, He Q, Jie S, et al. FAK signaling is critical for ErbB-2/ErbB-3 receptor cooperation for oncogenic transformation and invasion. J Cell Biol 2005; 171: 505-16).

[4] = system: SKMEL-V human melanoma cells; assay: Human melanoma model SKMEL-V+ in SCID mice (pilot study); format: in vivo
From the text: Human melanoma cells (“SKMEL-V cells”) were derived from SKMEL-24 cells (ATCC) by over expression of mouse VEGF.
Only those cells with >95% viability were used for in-vivo studies.
Once tumors reached a size of approximately 0.7 cm^3, they were removed under sterile condition, sliced into small pieces under a stereo-microscope. Each tissue piece was then reinoculated subcutaneously. Only pieces of approximately the same size and with no signs of necrosis were used.
At the end of the experiment, mice were sacrificed by cervical dislocation and full autopsies were conducted. A picture was taken of tumors from randomly selected mice. The tumors were then fixed in formalin for pathology examination.

[5] = system: OVCAR-3 (human ovarian carcinoma); assay: Ovarian carcinoma model OVCAR-3 in SCID mice; format: in vivo; conditions: QC-56 60 mg/kg/ip
From the text: • Species and strain: […] OVCAR-3 (human ovarian carcinoma). […] Control groups received the vehicle alone.

[6] = system: HCT-116 colorectal carcinoma; assay: Colorectal carcinoma model HCT-116 in SCID mice; format: in vivo, human
From the text: Control groups received the vehicle alone.

[7] = biological target: T1, HO-1 (rat spleen) (Rattus norvegicus, UniProt P06762); assay: HO enzymatic activity in rat spleen microsomal fraction (CO formed from methemalbumin, gas chromatography); format: biochemical; conditions: rat spleen microsomes; average ± standard deviation of replicate experiments; read-out: IC50 HO-1 (rat spleen)/μM
T1 construct: Spleen microsomes were used as a source of HO-1; from tissue; host or cells: spleen microsomal fraction of adult male Sprague-Dawley rats
T1 sequence (P06762 1-289): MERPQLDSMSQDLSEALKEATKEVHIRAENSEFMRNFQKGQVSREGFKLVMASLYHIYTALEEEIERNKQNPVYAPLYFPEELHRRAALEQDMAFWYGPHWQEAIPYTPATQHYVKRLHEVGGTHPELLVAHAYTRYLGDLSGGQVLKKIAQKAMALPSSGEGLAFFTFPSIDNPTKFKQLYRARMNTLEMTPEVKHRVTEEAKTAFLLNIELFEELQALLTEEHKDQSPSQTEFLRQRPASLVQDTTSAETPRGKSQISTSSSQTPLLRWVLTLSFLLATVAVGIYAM

Row | Compound | effect of hHO-1 transfection on 3H-thymidine incorporation ([1]; hHO-1-transfected human pancreatic tumor cells) | 3H-thymidine incorporation vs untreated cells ([1]; non-transfected human pancreatic tumor cells, hydrochloride) | tumor vascularization (vessel count, size, CD31) [2] | % cell survival [3] | anti-tumor activity ([4]; 30 and 60 mg/kg i.p.) | tumor volumes vs vehicle alone ([4]; QC-56 30 mg/kg (P<0.03) and 60 mg/kg (P<0.02)) | potency compared with dacarbazine ([4]; QC-56 30 and 60 mg/kg vs dacarbazine 50 mg/kg) | reduction of tumor growth [5] | tumor size on the day of sacrifice ([5]; CDDP 3 mg/kg) [cm^3] | mouse mortality ([6]; 60 mg/kg, HCT-116 model (FIG. 25)) | reduction of tumor volume at the time of sacrifice compared to control ([6]; QC-56 60 mg/kg/ip, 5-FU 60 mg/kg/ip reduced to 40 mg/kg) | IC50 [7] [µM] | tolerability (50 mg/kg, multiple administrations) | toxicity in combination studies (QC-56 60 mg/kg i.p. 4 cycles, chemotherapy drugs i.p.) | tolerability (multiple doses up to 100 mg/kg (intraperitoneal, intravenous), hydrochloride) | tolerability (repeated doses of 30 and 60 mg/kg i.p., SCID mice, hydrochloride) | toxic single dose (single intraperitoneal dose, SCID mice) [mg/kg]
1 | Brc1ccc(CCC2(Cn3ccnc3)OCCO2)cc1.Cl [QC-56, 1-((2-(2-(4-Bromophenyl)ethyl)-1,3-dioxolan-2-yl)methyl)-1H-imidazole hydrochloride] | significantly attenuated | significantly attenuated; also recorded: marked reduction | significant reduction in the density of blood vessels; also recorded: significant reduction in vascularization; also recorded: significant decrease in the size and number of blood vessels | Dose dependent decrease in cell survival | clear anti-tumor activity | statistically significantly smaller | significantly more potent than dacarbazine | approximately 15% | 1.12±0.08 | but not QC-56, induced mortality | approximately 23% | 1.9 ± 0.2 | well tolerated | No apparent toxicity | well tolerated with no apparent signs of toxicity; also recorded: well tolerated | well tolerated at repeated doses of 30 and 60 mg/kg with minor changes in body weights with no apparent toxicity; also recorded: well tolerated | > 100
2 | Brc1ccc(CCCCn2ccnc2)cc1.Cl [QC-199, 1-[4-(4-bromophenyl)butyl]-1H-imidazole hydrochloride] |  |  |  | Dose dependent decrease in cell survival |  |  |  |  |  |  |  |  |  |  |  |  | 
